Experimental data as given in patent US20170296668A1, “METHODS OF INCREASING SOLUBILITY OF POORLY SOLUBLE COMPOUNDS AND METHODS OF MAKING AND USING FORMULATIONS OF SUCH COMPOUND” (VIZURI HEALTH SCIENCES LLC, priority 2009, published 2017).
Where two headings read alike, the source gives them in different places.

Assays:
[1] = Solubility in Polysorbate 80 via thermal treatment process; conditions: for Flavonoid in Solvent -: PS80, HPLC, thermal treatment concentrate; for solubility: polysorbate 80, organic solvent or mixture, thermodynamic from solid; for Jordi PS800 Results / PS80 Sol. Conc. -: Table III; for Prepared Thermal Treatment Concentration in Polysorbate 80: Table XV
Procedure: The concentration of apigenin in A/PS80 was measured by HPLC-MS.

[2] = cited from earlier work; for Lit. H2O Sol. -: Table III; for WATER SOLUBILITY (mg/ml): saturation concentrations, published sources
[3] = Boiling of flavonoid in H2O & PS80 slurry; format: physicochemical; conditions: 2. H2O & PS80 slurry boiled; for solubility: water and polysorbate 80 slurry, aqueous with cosolvent or surfactant or cyclodextrin, thermodynamic from solid, read-out: SOLUBLE CONC. RANGE
[4] = Solubility in PEG 400 / PEG 300 via thermal treatment process; conditions: for Flavonoid in Solvent -: PEG-400, HPLC, thermal treatment concentrate; for Jordi PEG400 Results / PEG400 Sol. Conc.: Table III
Procedure: • The objective of this work was to quantify a total of six different flavonoids in PS80 and PEG-400. The samples were also analyzed qualitatively to look for signs of degradation of the solvents due to the elevated temperatures required of the thermal treatment process. • This project was divided into three distinct phases: method validation/development, quantitation of the individual flavones, and qualitative analysis to look for signs of PS80/PEG400 degradation.

EpiDerm tissue = format: cell-based; conditions: time to reduce tissue viability to 50%; unaudited values
Procedure: • The purpose of this study was to compare the acute dermal irritation potential of 5 Apigenin containing formulations using the Epiderm MTT ET50 assay. The time required for a test article to reduce tissue viability to 50%, i.e. ET50, correlates well with the traditional in vivo rabbit skin irritation test • This study was conducted at MB Research Laboratories (Spinnerstown, Pa. to conduct the EpiDerm MTT Assay. EpiDerm tissue was incubated with Api Genesis formulations for 1, 4 and 24 hours (two tissues per time point for each test article). Triton X-100, 1%, was used as positive control. After incubation, the tissues were rinsed to remove test articles and cytotoxicity was determined with MTT dye [3-(4, 5-Dimethylthiazol-2-yl)-2, 5-diphenyltetrazolium bromide, Thiazolyl blue]. Only viable cells are capable of enzymatic reduction of MTT into a purple formazan product that is quantitatively measured following extraction from the tissue.

[5] = Supersaturation test by addition of a crystal
[6] = Solubility in Ceteareth-20 via thermal treatment process; conditions: thermal treatment >200° C.
[7] = Aqueous solution clarity: water added to concentrate vs non-concentrate method
Procedure: (§1) The concentrates were added to water and their aqueous solution characteristics noted.

[8] = Nonoxynol-9 concentrates via thermal treatment process; format: physicochemical; conditions: Table XVI
Procedure: as §1

[9] = Solubility of concentrates in oil solvents; format: physicochemical
Source text: Borage oil was obtained from Sigma-Aldrich (St. Louis, Mo.) and Mineral Oil, USP, Canola Oil and Jojoba Oil from Spectrum Chemical of New Brunswick, N.J.

[10] = PS80, 1. Thermal Treatment method

COc1ccc([C@@H]2CC(=O)c3c(O)cc(O[C@@H]4O[C@H](CO[C@@H]5O[C@@H](C)[C@H](O)[C@@H](O)[C@H]5O)[C@@H](O)[C@H](O)[C@H]4O)cc3O2)cc1O [Hesperidin]
SOLUBLE CONC. RANGE [1, 10]: < 20 mg/mL | Lit. H2O Sol. - [2]: 0.05 to 3 mg/mL | WATER SOLUBILITY (mg/ml) [2]: from 0.05 to 3 mg/ml | SOLUBLE CONC. RANGE [3]: < 10 mg/mL | SOLUBLE CONC. RANGE (% wt/wt) [3]: < 1% | Molar Ratio PEG400/API (mole/mole) [4]: 21.2 mole/mole | Flavonoid in Solvent - [4]: 81.0 ± 8.0 mg/mL | Jordi PEG400 Results ([4]; thermal treatment): 81 mg/mL

Triton X-100
ET50 (EpiDerm tissue): 5.9 h

O=c1c(O)c(-c2ccc(O)c(O)c2)oc2cc(O)cc(O)c12 [Quercetin]
supersaturation in Ceteareth-20 ([5]; Room Temp.): solubilization. Not Super Saturated at Room Temp. via | SOLUBLE CONC. RANGE (% wt/wt) [1, 10]: > 7% | Flavonoid in Solvent - [1]: 65.0 mg/mL | solubility [1]: > 70 mg/mL | Jordi PS800 Results ([1]; thermal treatment): 65 mg/mL | PS80 Sol. Conc. - ([1]; thermal treatment): >80 mg/mL | Lit. H2O Sol. - [2]: <1 mg/mL | WATER SOLUBILITY (mg/ml) [2]: *<1 mg/ml | SOLUBLE CONC. RANGE (% wt/wt) [3]: <<7% | PEG400 Sol. Conc. ([4]; thermal treatment): 60 to 80 mg/mL | Conc. In Ceteareth-20 [6]: ~10000 µg/mL

O=c1cc(-c2ccc(O)c(O)c2)oc2cc(O)cc(O)c12 [Luteolin, 3′,4′,5,7-tetrahydroxyflavone]
SOLUBLE CONC. RANGE (% wt/wt) [1, 10]: > 8% | Prepared Thermal Treatment Concentration in Polysorbate 80 [1]: 50 mg/mL | solubility [1]: > 80 mg/mL | PS80 Sol. Conc. - ([1]; thermal treatment): >80 mg/mL | Lit. H2O Sol. - [2]: 0.38 mg/mL | Literature Solubility in H2O @ 25° C. ([2]; Table XV): 0.14 mg/mL | Literature Solubility in H2O @ 25° C. ([2]; Table XVI): 0.14 mg/mL | non-concentrate method: compound, nonoxynol-9 and 17 ml water heated to near boiling, cooled [7]: did precipitate | Comments when 17 ml of H2O was added to 3 gms of the concentrate ([7]; Nonoxynol-9 concentrate): A clear soln formed. | non-concentrate method: compound, polysorbate 80 and 17 ml water heated to near boiling, cooled [7]: did precipitate | Comments when 17 ml of H2O was added to 3 gms of the concentrate ([7]; Polysorbate 80 concentrate): A clear soln formed. | Prepared Thermal Treatment Concentration in Nonoxynol-9 [8]: 50 mg/mL | SOLUBLE CONC. RANGE (% wt/wt) [3]: ≤ 5% | solubility [3]: ≤ 50 mg/mL | Molar Ratio PEG400/API (mole/mole) [4]: 11.1 mole/mole | Flavonoid in Solvent - [4]: 72.5 mg/mL | Jordi PEG400 Results ([4]; thermal treatment): 72.5 mg/mL | PEG400 Sol. Conc. ([4]; thermal treatment): 70 to 90 mg/mL | solubility in the test oils ([9]; mineral, jojoba, canola, borage oils): insoluble | concentration of concentrate in polyglyceryl-4 oleate ([9]; room temperature): 10000 µg/mL | Conc. In Ceteareth-20 [6]: ~10000 µg/mL

Cc1cccc(Nc2ccccc2C(=O)O)c1C [Mefenamic Acid, reference compound]
PEG400 Solubility: supersaturation ([5]; PEG400 solution): Not Sup. Sat. | PS80 Solubility: supersaturation ([5]; PS80 solution): Not Sup. Sat. | Prepared Thermal Treatment Concentration in Polysorbate 80 [1]: 10 mg/mL | PS80 Solubility: amount solubilized, remained solubilized @ Room Temp. ([1]; thermal treatment): 1 wt % | Literature Solubility in H2O @ 25° C. ([2]; Table XV): 0.004 mg/mL | Literature Solubility in H2O @ 25° C. ([2]; Table XVI): 0.004 mg/mL | non-concentrate method: compound, nonoxynol-9 and 17 ml water heated to near boiling, cooled [7]: did precipitate | Comments when 17 ml of H2O was added to 3 gms of the concentrate ([7]; Nonoxynol-9 concentrate): A clear soln formed. | PEG400 Solubility: behaviour when H2O was added ([7]; PEG400 solution + H2O): Nost Mefenamic Acid ppt. out when H2O was added | PS80 Solubility: behaviour when H2O was added ([7]; PS80 solution + H2O): Nost Mefenamic Acid dissolved when H2O was added | non-concentrate method: compound, polysorbate 80 and 17 ml water heated to near boiling, cooled [7]: did precipitate | Comments when 17 ml of H2O was added to 3 gms of the concentrate ([7]; Polysorbate 80 concentrate): A clear soln formed. | Prepared Thermal Treatment Concentration in Nonoxynol-9 [8]: 10 mg/mL | PEG400 Solubility: amount solubilized, remained solubilized @ Room Temp. ([4]; thermal treatment): 1 wt %

C[C@@H]1O[C@@H](OC[C@H]2O[C@@H](Oc3c(-c4ccc(O)c(O)c4)oc4cc(O)cc(O)c4c3=O)[C@H](O)[C@@H](O)[C@@H]2O)[C@H](O)[C@H](O)[C@H]1O [Rutin]
SOLUBLE CONC. RANGE (% wt/wt) [1, 10]: < 1% | Flavonoid in Solvent - [1]: 14.3 mg/mL | solubility [1]: < 10 mg/mL | solubility [3]: < 15 mg/mL

Oc1ccc(C=Cc2cc(O)cc(O)c2)cc1 [Resveratrol]
SOLUBLE CONC. RANGE (% wt/wt) [1, 10]: > 8% | Flavonoid in Solvent - [1]: 127.5 mg/mL | solubility [1]: > 80 mg/mL | Jordi PS800 Results ([1]; thermal treatment): 127.5 mg/mL | PS80 Sol. Conc. - ([1]; thermal treatment): >80 mg/mL | WATER SOLUBILITY (mg/ml) [2]: *0.1 to 0.3 mg/ml | PEG400 Sol. Conc. ([4]; thermal treatment): 80 to 100 mg/mL
